Key:
[1] = target: Gamma-aminobutyric acid receptor subunit alpha-1 (Rattus norvegicus, UniProt P62813); format: functional
[2] = target: T1, Alpha-2B adrenergic receptor (Homo sapiens, UniProt P18089)
T1 sequence (P18089 whole entry): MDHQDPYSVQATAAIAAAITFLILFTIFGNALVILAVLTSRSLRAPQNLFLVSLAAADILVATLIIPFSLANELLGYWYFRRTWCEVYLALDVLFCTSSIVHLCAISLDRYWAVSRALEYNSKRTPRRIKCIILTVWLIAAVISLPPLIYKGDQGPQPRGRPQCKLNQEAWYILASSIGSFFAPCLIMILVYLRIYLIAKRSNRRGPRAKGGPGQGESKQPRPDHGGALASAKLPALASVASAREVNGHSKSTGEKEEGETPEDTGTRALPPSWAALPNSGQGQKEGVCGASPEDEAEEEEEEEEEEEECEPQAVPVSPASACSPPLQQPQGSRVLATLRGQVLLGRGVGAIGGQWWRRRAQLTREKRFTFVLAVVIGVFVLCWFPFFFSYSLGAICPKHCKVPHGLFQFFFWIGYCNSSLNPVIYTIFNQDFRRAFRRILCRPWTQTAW

[3] = target: Beta-1 adrenergic receptor (Homo sapiens, UniProt P08588); format: functional
Beta-1 adrenergic receptor, sequence (P08588 whole entry): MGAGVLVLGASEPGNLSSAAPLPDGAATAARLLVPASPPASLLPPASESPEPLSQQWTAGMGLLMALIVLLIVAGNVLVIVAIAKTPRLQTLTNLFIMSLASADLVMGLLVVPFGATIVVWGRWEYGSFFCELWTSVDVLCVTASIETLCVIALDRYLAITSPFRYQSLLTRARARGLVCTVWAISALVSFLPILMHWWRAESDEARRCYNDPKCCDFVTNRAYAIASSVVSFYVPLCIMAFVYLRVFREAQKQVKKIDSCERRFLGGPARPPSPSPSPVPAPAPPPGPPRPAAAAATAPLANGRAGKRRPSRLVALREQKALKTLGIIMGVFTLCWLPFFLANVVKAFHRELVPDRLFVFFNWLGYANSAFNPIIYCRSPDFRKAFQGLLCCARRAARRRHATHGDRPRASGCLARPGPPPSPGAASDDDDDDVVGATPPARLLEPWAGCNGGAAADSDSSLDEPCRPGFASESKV

[4] = target: Vasopressin V1a receptor (Homo sapiens, UniProt P37288)
Vasopressin V1a receptor, sequence (P37288 whole entry): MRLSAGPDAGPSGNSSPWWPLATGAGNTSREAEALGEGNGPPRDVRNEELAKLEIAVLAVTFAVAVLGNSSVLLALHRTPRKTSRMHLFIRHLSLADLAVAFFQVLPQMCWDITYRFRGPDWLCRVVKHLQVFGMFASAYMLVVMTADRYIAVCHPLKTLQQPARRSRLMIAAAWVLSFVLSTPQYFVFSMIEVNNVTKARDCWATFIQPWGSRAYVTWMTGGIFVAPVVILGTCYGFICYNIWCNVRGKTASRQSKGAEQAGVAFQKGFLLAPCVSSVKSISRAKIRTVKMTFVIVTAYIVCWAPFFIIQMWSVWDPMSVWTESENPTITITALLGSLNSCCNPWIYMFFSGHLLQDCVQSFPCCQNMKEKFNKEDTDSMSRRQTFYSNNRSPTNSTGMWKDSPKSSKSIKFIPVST

[5] = target: 5-hydroxytryptamine receptor 2A (Homo sapiens, UniProt P28223); format: functional, cell-based
5-hydroxytryptamine receptor 2A, sequence (P28223 whole entry): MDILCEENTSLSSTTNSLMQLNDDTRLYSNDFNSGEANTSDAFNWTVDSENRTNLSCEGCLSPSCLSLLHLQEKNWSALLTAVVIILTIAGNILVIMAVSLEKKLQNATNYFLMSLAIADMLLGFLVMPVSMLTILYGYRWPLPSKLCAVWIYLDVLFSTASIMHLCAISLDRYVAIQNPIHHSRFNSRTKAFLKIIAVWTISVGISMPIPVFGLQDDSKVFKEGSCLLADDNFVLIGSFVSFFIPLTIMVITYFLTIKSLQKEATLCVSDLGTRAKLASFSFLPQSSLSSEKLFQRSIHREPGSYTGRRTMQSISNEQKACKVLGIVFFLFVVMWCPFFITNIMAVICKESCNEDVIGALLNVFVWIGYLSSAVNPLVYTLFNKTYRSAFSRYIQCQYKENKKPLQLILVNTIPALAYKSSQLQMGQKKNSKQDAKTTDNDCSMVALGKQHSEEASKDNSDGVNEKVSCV

[6] = target: T2, Progesterone receptor (Homo sapiens, UniProt P06401); format: functional
T2 sequence (P06401 whole entry): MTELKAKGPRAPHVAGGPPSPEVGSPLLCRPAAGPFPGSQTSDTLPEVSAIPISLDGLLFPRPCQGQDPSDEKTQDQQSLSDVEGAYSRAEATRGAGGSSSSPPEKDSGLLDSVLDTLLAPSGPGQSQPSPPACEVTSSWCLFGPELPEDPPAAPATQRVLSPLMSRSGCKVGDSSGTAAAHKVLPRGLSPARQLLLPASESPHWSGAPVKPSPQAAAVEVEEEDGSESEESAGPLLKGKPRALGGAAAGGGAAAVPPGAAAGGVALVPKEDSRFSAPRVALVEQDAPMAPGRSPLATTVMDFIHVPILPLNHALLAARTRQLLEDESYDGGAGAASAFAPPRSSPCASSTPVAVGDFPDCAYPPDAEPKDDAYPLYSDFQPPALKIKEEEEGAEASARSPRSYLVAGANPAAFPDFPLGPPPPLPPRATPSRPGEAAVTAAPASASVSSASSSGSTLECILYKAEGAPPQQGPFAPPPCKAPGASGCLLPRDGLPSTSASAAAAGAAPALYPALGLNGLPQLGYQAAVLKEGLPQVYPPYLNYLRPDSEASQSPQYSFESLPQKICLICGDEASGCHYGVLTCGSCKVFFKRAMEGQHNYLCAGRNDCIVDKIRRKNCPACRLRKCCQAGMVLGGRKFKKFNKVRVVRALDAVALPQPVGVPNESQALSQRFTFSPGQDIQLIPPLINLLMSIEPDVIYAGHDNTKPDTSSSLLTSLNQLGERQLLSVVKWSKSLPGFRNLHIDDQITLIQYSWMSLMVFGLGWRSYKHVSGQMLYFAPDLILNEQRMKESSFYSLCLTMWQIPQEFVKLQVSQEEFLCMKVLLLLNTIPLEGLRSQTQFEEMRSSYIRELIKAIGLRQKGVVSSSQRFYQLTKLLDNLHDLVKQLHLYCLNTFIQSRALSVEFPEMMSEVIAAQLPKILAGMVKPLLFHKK
Note: assay procedure not described here.

Gamma-aminobutyric acid receptor subunit alpha-1, sequence (P62813 whole entry): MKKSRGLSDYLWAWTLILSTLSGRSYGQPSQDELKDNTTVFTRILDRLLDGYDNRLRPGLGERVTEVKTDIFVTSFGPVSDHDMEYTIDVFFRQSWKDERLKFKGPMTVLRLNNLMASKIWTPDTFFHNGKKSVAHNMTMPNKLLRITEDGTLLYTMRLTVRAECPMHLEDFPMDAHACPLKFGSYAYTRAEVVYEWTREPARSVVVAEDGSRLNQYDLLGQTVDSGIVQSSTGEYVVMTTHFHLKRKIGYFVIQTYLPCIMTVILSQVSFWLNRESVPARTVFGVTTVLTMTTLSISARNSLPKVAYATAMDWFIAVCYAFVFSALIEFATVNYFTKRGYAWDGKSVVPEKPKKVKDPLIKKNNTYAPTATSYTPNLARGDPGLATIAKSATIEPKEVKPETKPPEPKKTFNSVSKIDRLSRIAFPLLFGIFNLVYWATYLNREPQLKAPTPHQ

SMILES | AC50 [1] | AC50 [2] | AC50 [3] | AC50 [4] | AC50 [5] | AC50 [6]
CCOC(=O)C1=C[C@]2(CC)CCCN3CCc4c(n1c1ccccc41)[C@@H]32 [VINPOCETINE] | > 30 µM | 2.4 µM | > 30 µM | > 30 µM | > 30 µM | > 30 µM
Clc1ccc(C(Cn2ccnc2)OCc2ccsc2Cl)c(Cl)c1 (configuration not stated) [TIOCONAZOLE] | > 30 µM | > 30 µM | 24.3 µM | > 30 µM | > 30 µM | 10.3 µM
CCC1(c2ccccc2)CCC(=O)NC1=O (configuration not stated) [GLUTETHIMIDE] | > 10 µM | > 10 µM | > 10 µM | > 10 µM | > 30 µM | > 10 µM
Nc1ncn([C@H]2C[C@H](O)[C@@H](CO)O2)c(=O)n1 [DECITABINE] | > 30 µM | > 30 µM | 19.1 µM | > 30 µM | > 30 µM | > 30 µM
CC(=O)N[C@@H](CS)C(=O)O [ACETYLCYSTEINE] | > 30 µM | > 10 µM | > 30 µM | > 30 µM | > 30 µM | > 30 µM
COCC1=C(C(=O)O)N2C(=O)[C@@H](NC(=O)/C(=N\OC)c3csc(N)n3)[C@H]2SC1 [CEFPODOXIME] | > 30 µM | > 30 µM | > 30 µM | > 30 µM | > 30 µM | > 30 µM
Oc1ccc2c(c1)CC[C@H](c1ccccc1)[C@@H]2c1ccc(OCCN2CCCC2)cc1 [LASOFOXIFENE] | > 30 µM | 8.2 µM | 10 µM | > 30 µM | 12 µM | > 10 µM
C[C@]12CC[C@@H]3c4ccc(O)cc4C[C@@H](CCCCCCCCC[S+]([O-])CCCC(F)(F)C(F)(F)F)[C@H]3[C@@H]1CC[C@@H]2O (some centres not stated) [FULVESTRANT] | > 30 µM | > 30 µM | > 30 µM | > 30 µM | > 30 µM | 3.6 µM
C=CCNc1nc(NCC=C)nc(N2CCN(C(c3ccc(F)cc3)c3ccc(F)cc3)CC2)n1 [ALMITRINE] | > 30 µM | > 30 µM | > 30 µM | > 30 µM | > 30 µM | > 30 µM
Clc1ccc2c(N3CCN(CCCN4CCN(c5ccnc6cc(Cl)ccc56)CC4)CC3)ccnc2c1 [PIPERAQUINE] | > 30 µM | > 30 µM | > 30 µM | > 30 µM | > 30 µM | > 30 µM
CC1OC2(CS1)CN1CCC2CC1 (configuration not stated) [CEVIMELINE] | > 10 µM | > 30 µM | > 10 µM | > 10 µM | > 10 µM | > 10 µM
Cc1cccc(N2CC(CO)OC2=O)c1 (configuration not stated) [TOLOXATONE] | > 30 µM | > 30 µM | > 30 µM | > 30 µM | > 30 µM | > 30 µM

From ChEMBL document CHEMBL5291721, “A preclinical secondary pharmacology resource illuminates target-adverse drug reaction associations of marketed drugs” (Nat Commun, 2023)
